In assay [1] the target is human RORγt ligand binding domain (RORγt LBD) (Homo sapiens (Human), UniProt P51449). Kind of assay: RORγt ThermoFluor® assay (thermal shift binding). The note with it: read-out: ThermoFluor® Assay, Kd. The essentials:
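His-tagged human RORγt LBD (0.065 mg/mL) with 60 μM 1,8-ANS in 100 mM Hepes pH 7.0, 10 mM NaCl, 2.5 mM GSH, 0.002% Tween-20 was heated at 1 °C/min.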
(In DSF a fluorescence change marks the thermal transition of the protein.)

The target of another assay is full-length human RORγt (Homo sapiens (Human), UniProt P51449). Kind of assay: RORγt (full-length human) reporter assay, Conditions B or C. It is filed as cell-based. The note with it: for inhibition at 0.3 µM: at 0.3 μM compound concentration; for inhibition at 0.3 µM / inhibition at 3 µM / inhibition at 1 µM: read-out: RORγt (FL) Reporter Assay B or C, % inhibition; for RORγt (FL) Reporter Assay B or C, % inhibition (value marked *): marked *: footnote not given; for inhibition at 3 µM: at 3 μM compound concentration; for inhibition at 1 µM: at 1 μM compound concentration. The method, boiled down:
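HEK293T cells transiently co-transfected with GAL4-DBD–full-length human RORγt (nt 142-1635, NM_001001523.1) plus GAL4-firefly and CMV-Renilla luciferase reporters; compounds added 4-6 h post-transfection for 16-20 h in 1.3% FBS, 0.1% DMSO. Firefly signal normalized to DMSO and saturating reference compound, then to Renilla; IC50 from concentration plots.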
A general note: Reporter assays use an easily measured gene product as a stand-in for the process of interest.

Setting [2] is: read-out: RORγt (FL) Reporter Assay B or C, IC50.
Setting [3] is: Conditions B or C, read-out: RORγt (FL) Reporter Assay B or C, IC50.

Each structure is given as a SMILES string. Like-named read-outs stand apart in the source and are kept apart here.

Sequence of full-length human RORγt (P51449 other isoform, or with tags, fused parts or gaps): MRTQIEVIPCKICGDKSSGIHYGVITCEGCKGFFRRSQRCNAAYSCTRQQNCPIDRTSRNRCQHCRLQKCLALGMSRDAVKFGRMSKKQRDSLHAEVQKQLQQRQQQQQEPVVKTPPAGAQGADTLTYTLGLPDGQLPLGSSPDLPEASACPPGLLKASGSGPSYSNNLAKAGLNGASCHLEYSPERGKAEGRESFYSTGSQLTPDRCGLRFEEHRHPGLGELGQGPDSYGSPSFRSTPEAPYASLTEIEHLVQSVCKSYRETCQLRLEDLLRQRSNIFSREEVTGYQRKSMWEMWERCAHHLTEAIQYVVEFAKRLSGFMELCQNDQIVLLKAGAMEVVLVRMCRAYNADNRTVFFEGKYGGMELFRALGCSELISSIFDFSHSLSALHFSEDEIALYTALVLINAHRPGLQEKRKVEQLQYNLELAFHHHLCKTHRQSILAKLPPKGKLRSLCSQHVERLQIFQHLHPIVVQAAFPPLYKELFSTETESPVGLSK
Sequence of human RORγt ligand binding domain (RORγt LBD) (P51449 other isoform, or with tags, fused parts or gaps): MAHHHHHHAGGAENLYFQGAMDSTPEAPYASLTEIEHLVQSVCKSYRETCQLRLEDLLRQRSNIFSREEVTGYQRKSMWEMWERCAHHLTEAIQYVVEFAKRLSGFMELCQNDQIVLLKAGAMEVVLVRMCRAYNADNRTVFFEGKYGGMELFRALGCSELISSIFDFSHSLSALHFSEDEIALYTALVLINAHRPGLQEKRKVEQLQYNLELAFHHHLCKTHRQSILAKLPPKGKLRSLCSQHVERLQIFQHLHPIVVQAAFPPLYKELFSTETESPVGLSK

For orientation: Kd means the equilibrium constant for the complex coming apart. A word on the inhibition: it is the change of the read-out against control, counted positive when it falls. A word on the IC50: it is the concentration at which inhibition is half-maximal. On to `C[C@H]1CCCN1C(=O)c1nc(C(=O)N[C@H]2CC[C@@H]2O)sc1-c1cnc(NC(C)(C)C)cc1C(F)F` (relative stereo) [Example 404, 5-(6-(tert-Butylamino)-4-(difluoromethyl)pyridin-3-yl)-N-((1S*,2S*)-2-hydroxycyclobutyl)-4-((S)-2-methylpyrrolidine-1-carbonyl)thiazole-2-carboxamide], for which the Kd in assay [1] was found to be 3.8 nM. Besides, at full-length human RORγt, the inhibition at 0.3 µM amounted to 98%. The IC50 at full-length human RORγt (setting [2]) is 0.015 µM.
As to `C[C@@H](Nc1cc(C(F)(F)F)c(-c2sc(C(=O)NCC(C)(C)O)nc2C(=O)N2CCC[C@@H]2C)cn1)C1CC1` [Example 48, 5-(6-(((R)-1-Cyclopropylethyl)amino)-4-(trifluoromethyl)pyridin-3-yl)-N-(2-hydroxy-2-methylpropyl)-4-((S)-2-methylpyrrolidine-1-carbonyl)thiazole-2-carboxamide], in assay [1], the Kd is 11 nM. Moreover, on full-length human RORγt (Conditions B or C), the “RORγt (FL) Reporter Assay B or C, % inhibition (value marked *)” value (from here on “RORγt … % inhibition (value marked *)”) is on record as 111* %. Also, at full-length human RORγt (setting [3]), the IC50 is 0.023 µM.
On to `C[C@H]1CCCN1C(=O)c1nc(C(=O)NC2CCS(=O)(=O)CC2)sc1-c1cnc(NC2(C)CCC2)cc1C(F)F` [Example 324, (S)-5-(4-(Difluoromethyl)-6-((1-methylcyclobutyl)amino)pyridin-3-yl)-N-(1,1-dioxidotetrahydro-2H-thiopyran-4-yl)-4-(2-methylpyrrolidine-1-carbonyl)thiazole-2-carboxamide], for which the Kd in assay [1] amounted to 2.4 nM. Moreover, the inhibition at 3 µM on full-length human RORγt turned out to be 93%. The IC50 on full-length human RORγt (setting [2]) is 0.038 µM.
Consider `CC(C)(C)CNc1cc(C(F)(F)F)c(-c2sc(C(=O)NCC(C)(C)O)nc2C(=O)N2C3CCC2CC3)cn1` [Example 84, 4-((1s,4s)-7-Azabicyclo[2.2.1]heptane-7-carbonyl)-N-(2-hydroxy-2-methylpropyl)-5-(6-(neopentylamino)-4-(trifluoromethyl)pyridin-3-yl)thiazole-2-carboxamide], for which the Kd in assay [1] turned out to be 1.2 nM. The “RORγt … % inhibition (value marked *)” value at full-length human RORγt (Conditions B or C) is given as 136* %. Besides, the IC50 on full-length human RORγt (setting [3]) was 0.018 µM.
With `C[C@H](Nc1cc(C(F)F)c(-c2sc(C(=O)NC3CCS(=O)(=O)CC3)nc2C(=O)N2CC(F)(F)C[C@@H]2C)cn1)C(F)(F)F` [Example 421, 4-[(2S)-4,4-Difluoro-2-methyl-pyrrolidine-1-carbonyl]-5-[4-(difluoromethyl)-6-[[(1S)-2,2,2-trifluoro-1-methyl-ethyl]amino]-3-pyridyl]-N-(1,1-dioxothian-4-yl)thiazole-2-carboxamide], in assay [1], the Kd is 1 nM. The inhibition at 1 µM at full-length human RORγt amounted to 98%. Moreover, on full-length human RORγt (setting [2]), the IC50 is 0.064 µM.
In the case of `C[C@H](Nc1cc(C(F)F)c(-c2sc(C(=O)N[C@@H]3CCC[C@H]3O)nc2C(=O)N2C3CCC2CC3)cn1)C(F)(F)F` [Example 224, 4-((1s,4s)-7-Azabicyclo[2.2.1]heptane-7-carbonyl)-5-(4-(difluoromethyl)-6-(((1S)-2,2,2-trifluoro-1-methyl-ethyl)amino)-3-pyridyl)-N-((1R,2R)-2-hydroxycyclopentyl)thiazole-2-carboxamide], in assay [1], the Kd was 2.7 nM. Also, the “RORγt … % inhibition (value marked *)” value at full-length human RORγt (Conditions B or C) was 112* %. On full-length human RORγt (RORγt (FL) Reporter Assay B or C, IC50 (μM), Conditions B or C), this molecule showed an IC50 of 0.026 µM.
As to `CC[C@H](Nc1cc(C(F)F)c(-c2sc(C(=O)N[C@H]3CC[C@@H]3O)nc2C(=O)N2C3CCC2CC3)cn1)C(F)(F)F` (relative stereo) [Example 406, 4-((1s,4s)-7-Azabicyclo[2.2.1]heptane-7-carbonyl)-5-(4-(difluoromethyl)-6-(((S)-1,1,1-trifluorobutan-2-yl)amino)pyridin-3-yl)-N-((1S*,2S*)-2-hydroxycyclobutyl)thiazole-2-carboxamide], in assay [1], the Kd worked out at 2.7 nM. Further, the inhibition at 0.3 µM at full-length human RORγt came out at 92%. The IC50 at full-length human RORγt (setting [2]) worked out at 0.081 µM.
As to `CC[C@H](Nc1cc(C(F)F)c(-c2sc(C(=O)N[C@H]3CC[C@H](O)C3)nc2C(=O)N2CCC[C@@H]2C)cn1)C(F)(F)F` [Example 398, 5-[4-(Difluoromethyl)-6-[[(1S)-1-(trifluoromethyl)propyl]amino]-3-pyridyl]-N-[(1S,3S)-3-hydroxycyclopentyl]-4-[(2S)-2-methylpyrrolidine-1-carbonyl]thiazole-2-carboxamide], the Kd in assay [1] worked out at 1.5 nM. The inhibition at 3 µM at full-length human RORγt was 109%. The concentration for half-maximal inhibition (IC50) on full-length human RORγt (setting [2]) is 0.039 µM.
The like results for `C[C@H]1CCCN1C(=O)c1nc(C(=O)N[C@H]2CC[C@H](O)C2)sc1-c1cnc(NC(C)(C)C)cc1C(F)(F)F` [Example 361, 5-[6-(tert-Butylamino)-4-(trifluoromethyl)-3-pyridyl]-N-[(1S,3S)-3-hydroxycyclopentyl]-4-[(2S)-2-methylpyrrolidine-1-carbonyl]thiazole-2-carboxamide] were, in that order, 0.37 nM, 105% and 0.025 µM.
Turning to `C[C@H]1CC(F)(F)CN1C(=O)c1nc(C(=O)N[C@H](C)C(C)(C)O)sc1-c1cnc(NC2(C)CCC2)cc1C(F)(F)F` [Example 196, 4-((S)-4,4-Difluoro-2-methylpyrrolidine-1-carbonyl)-N—((R)-3-hydroxy-3-methylbutan-2-yl)-5-(6-((1-methhylcyclobutyl)amino)-4-(trifluoromethyl)pyridine-3-yl)thiazole-2-carboxamide], the Kd in assay [1] worked out at 0.64 nM. On full-length human RORγt (Conditions B or C), the “RORγt … % inhibition (value marked *)” value is on record as 109* %. For the same molecule, the IC50 on full-length human RORγt (setting [3]) amounted to 0.027 µM.
For `CC[C@H](Nc1cc(C(F)F)c(-c2sc(C(=O)N[C@@H]3CC[C@H]3O)nc2C(=O)N2CCC[C@@H]2C)cn1)C(F)(F)F` (relative stereo) [Example 376, 5-(4-(Difluoromethyl)-6-(((S)-1,1,1-trifluorobutan-2-yl)amino)pyridin-3-yl)-N-((1R*,2R*)-2-hydroxycyclobutyl)-4-((S)-2-methylpyrrolidine-1-carbonyl)thiazole-2-carboxamide], the Kd in assay [1] was 3.8 nM. The inhibition at 3 µM at full-length human RORγt is 101%. In addition, the IC50 at full-length human RORγt (setting [2]) was 0.06 µM.
For `C[C@H](Nc1cc(C(F)F)c(-c2sc(C(=O)NC3CN(S(C)(=O)=O)C3)nc2C(=O)N2CCC[C@@H]2C)cn1)C(F)(F)F` [Example 409, 5-[4-(Difluoromethyl)-6-[[(1S)-2,2,2-trifluoro-1-methyl-ethyl]amino]-3-pyridyl]-4-[(2S)-2-methylpyrrolidine-1-carbonyl]-N-(1-methylsulfonylazetidin-3-yl)thiazole-2-carboxamide], the Kd in assay [1] worked out at 6.3 nM. At full-length human RORγt, the inhibition at 3 µM came out at 103%. Besides, the IC50 on full-length human RORγt (setting [2]) is 0.036 µM.
The matching figures for `C[C@H]1CCCN1C(=O)c1nc(C(=O)N[C@H](C)C(C)(C)O)sc1-c1cnc(N[C@@H](C2CC2)C(F)(F)F)cc1C(F)F` [Example 311, 5-(6-(((S)-1-Cyclopropyl-2,2,2-trifluoroethyl)amino)-4-(difluoromethyl)pyridin-3-yl)-N—((R)-3-hydroxy-3-methylbutan-2-yl)-4-((S)-2-methylpyrrolidine-1-carbonyl)thiazole-2-carboxamide]: 3.7 nM, 107% and 0.04 µM.
As to `C[C@H]1CCCN1C(=O)c1nc(C(=O)N[C@H]2C[C@H](O)C2)sc1-c1cnc(NC2(C)CCC2)cc1C(F)F` [Example 323, 5-(4-(Difluoromethyl)-6-((1-methylcyclobutyl)amino)pyridin-3-yl)-N-((1r,3S)-3-hydroxycyclobutyl)-4-((S)-2-methylpyrrolidine-1-carbonyl)thiazole-2-carboxamide], in assay [1], the equilibrium dissociation constant (Kd) was 8.2 nM. For the same molecule, on full-length human RORγt, the inhibition at 1 µM worked out at 97%. At full-length human RORγt (setting [2]), the IC50 worked out at 0.15 µM.
In the case of `CC[C@@H](Nc1cc(C(F)F)c(-c2sc(C(=O)N[C@H]3COC[C@@H]3O)nc2C(=O)N2CCC[C@@H]2C)cn1)C(F)(F)F` [Example 207, 5-(4-(Difluoromethyl)-6-(((1R)-1-(trifluoromethyl)propyl)amino)-3-pyridyl)-N-((3S,4R)-4-hydroxytetrahydrofuran-3-yl)-4-((2S)-2-methylpyrrolidine-1-carbonyl)thiazole-2-carboxamide], the Kd in assay [1] is 2.6 nM. Moreover, on full-length human RORγt (Conditions B or C, marked ***: footnote not given), the “RORγt (FL) Reporter Assay B or C, % inhibition (value marked ***)” value is on record as 103*** %. For the same molecule, the IC50 on full-length human RORγt (setting [3]) stood at 0.019 µM.
With `C[C@H]1CCCCN1C(=O)c1nc(C(=O)NCC(C)(C)O)sc1-c1cnc(NCC(C)(C)C)cc1C(F)F` [Example 114, (S)-5-(4-(Difluoromethyl)-6-(neopentylamino)pyridin-3-yl)-N-(2-hydroxy-2-methylpropyl)-4-(2-methylpiperidine-1-carbonyl)thiazole-2-carboxamide], in assay [1], the Kd came to 0.49 nM. For the same molecule, the “RORγt … % inhibition (value marked *)” value at full-length human RORγt (Conditions B or C) is on record as 117* %. Moreover, the IC50 at full-length human RORγt (setting [3]) was 0.0097 µM.
`CC(C)(C)Nc1cc(C(F)F)c(-c2sc(C(=O)N[C@@H]3CC[C@@H](O)C3)nc2C(=O)N2C3CCC2CC3)cn1` [Example 430, 4-((1s,4s)-7-Azabicyclo[2.2.1]heptane-7-carbonyl)-5-[6-(tert-butylamino)-4-(difluoromethyl)-3-pyridyl]-N-[(1R,3R)-3-hydroxycyclopentyl]thiazole-2-carboxamide]: the Kd in assay [1] was found to be 0.6 nM. This molecule also had an IC50 against full-length human RORγt (RORγt (FL) Reporter Assay B or C, IC50) of 0.013 µM. Also, at full-length human RORγt, the inhibition at 1 µM was 130%.
